Laboratory results reported in ChEMBL document CHEMBL1136669, “Synthesis of aza and oxaglutamyl-p-nitroanilide derivatives and their kinetic studies with gamma-glutamyltranspeptidase” (Bioorg Med Chem Lett, 2003).

Target: Glutathione hydrolase 1 proenzyme (Rattus norvegicus, UniProt P07314)
Test: Compound was tested for the competitive inhibition of rat kidney gamma-glutamyltranspeptidase (gamma-GGT)

Glutathione hydrolase 1 proenzyme, sequence (P07314 1-379 limits assumed): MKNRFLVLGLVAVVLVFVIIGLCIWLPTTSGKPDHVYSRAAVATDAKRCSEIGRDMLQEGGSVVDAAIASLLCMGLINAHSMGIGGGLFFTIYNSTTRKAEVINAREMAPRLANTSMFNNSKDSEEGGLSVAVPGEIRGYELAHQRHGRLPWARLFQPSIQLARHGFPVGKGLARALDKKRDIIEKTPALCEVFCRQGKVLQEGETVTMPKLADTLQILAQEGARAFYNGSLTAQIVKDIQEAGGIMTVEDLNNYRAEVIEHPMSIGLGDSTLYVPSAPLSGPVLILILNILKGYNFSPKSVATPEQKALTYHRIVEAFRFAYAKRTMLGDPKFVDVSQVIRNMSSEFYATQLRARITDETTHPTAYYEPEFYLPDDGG
Glutathione hydrolase 1 proenzyme, sequence (P07314 380-568 limits assumed): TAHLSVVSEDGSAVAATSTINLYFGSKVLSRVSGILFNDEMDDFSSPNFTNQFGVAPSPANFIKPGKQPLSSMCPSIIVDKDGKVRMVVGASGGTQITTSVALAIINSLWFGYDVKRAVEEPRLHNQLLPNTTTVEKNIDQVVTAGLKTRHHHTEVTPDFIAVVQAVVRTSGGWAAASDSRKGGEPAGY

Cl.N[C@@H](CNC(=O)Nc1ccc([N+](=O)[O-])cc1)C(=O)O
Ki comp: 3.8 mM
